# Experimental data from publication PMC12040169 (PLOS Biology, 2025).
# Experiment: in vitro
# Conditions: human, hela cells, % viability
row,SMILES,"viability at 28.5 h, 10 µM"
1,CC(=O)N1CCC2(CCCC[C@H]3CN(C(C)C)CC[C@@H]3NC(=O)CNC2=O)CC1 [CBK292133],102%
2,COCCN1CC[C@@H]2[C@@H](C/C=C/Cc3ccccc3OCC(=O)N2C)C1 [CBK292134],98%
3,O=C1COc2ccccc2C/C=C/CC2(CCCN(C(=O)CCN3CCCC3)C2)CN1 (stereo not shown) [CBK292136],102%
4,CC(=O)N1CC[C@H]2NC(=O)CNC(=O)C3(CCCC[C@H]2C1)CCN(C(=O)CCn1ccnc1)CC3 [CBK292138],111%
5,O=C1N[C@@H]2CCN(CC(=O)N3CCCC3)C[C@@H]2CCCCCOc2ccccc21 [CBK292141],107%
6,O=C1CNC(=O)C2(C/C=C/C[C@H]3COCC[C@H]3N1)CCN(C(=O)C1CCOCC1)CC2 [CBK292143],84.9%
7,CN1C(=O)c2ccccc2OCCCCC[C@H]2[C@@H]1CCCN2C(=O)CN1CCN(CCO)CC1 [CBK292144],99%
8,O=C1COc2ccccc2C/C=C/C[C@H]2CN(C(=O)CN3CCN(CCO)CC3)CC[C@H]2N1 [CBK292146],110%
9,CC(=O)N1CCC2(C/C=C/C[C@H]3CN(CC(N)=O)CC[C@H]3NC(=O)CNC2=O)CC1 [CBK292148],97.6%
10,O=C1COc2ccccc2C(=O)N[C@@H]2CCOC[C@@H]2C/C=C/C[C@H]2[C@H](CCCN2CCO)N1 [CBK292149],106%
11,CN1C(=O)COc2ccccc2CCCC[C@@H]2[C@H]1CCCN2C(=O)CCn1ccnc1 [CBK292150],96.6%
12,O=C1COc2ccccc2C/C=C/CC2(CCN(C(=O)Cc3cccnc3)CC2)C(=O)NCCN1 [CBK292153],110%
13,Cc1cc(C(=O)N2CCC3(C/C=C/CCOc4ccccc4C(=O)NCCCNC3=O)CC2)no1 [CBK292155],92.6%
14,O=C1CNC(=O)C2(C/C=C/C[C@H]3COCC[C@H]3N1)CCN(Cc1ccc(F)cn1)CC2 [CBK292160],110%
15,O=C1CNC(=O)C2(C/C=C/C[C@H]3COCC[C@H]3N1)CCN(C(=O)c1ccc(=O)[nH]n1)CC2 [CBK292161],110%
16,CC(=O)N1CCC2(CCCC[C@H]3CN(CC(=O)N(C)C)CC[C@@H]3NC(=O)CNC2=O)CC1 [CBK292163],94.6%
17,CC(=O)N1CCC[C@H]2NC(=O)CNC(=O)C3(C/C=C/C[C@H]21)CCN(Cc1cc[nH]n1)CC3 [CBK292164],103%
18,O=C1COc2ccccc2CCCCC2(CCCNC2)CN1 (stereo not shown) [CBK292166],90.5%
19,CC(=O)N1CCC2(C/C=C/C[C@H]3CN(Cc4nccs4)CC[C@H]3NC(=O)CNC2=O)CC1 [CBK292169],111%
20,COCCOCC(=O)N1CCC2(C/C=C/C[C@H]3COCC[C@H]3NC(=O)CNC2=O)CC1 [CBK292170],105%
21,CC(=O)N1CC[C@H]2NC(=O)CNC(=O)C3(CCCC[C@H]2C1)CCN(C(=O)c1ccc(C)nc1)CC3 [CBK292172],94.7%
22,CC(=O)N1CCC[C@H]2NC(=O)CNC(=O)C3(C/C=C/C[C@H]21)CCN(C(=O)CCC(=O)O)CC3 [CBK292174],85%
23,CN1CCOc2ccccc2C(=O)NC/C=C/CC2(CCCN(Cc3cc[nH]n3)C2)C1=O (stereo not shown) [CBK292175],103%
24,CC(=O)N1CCC[C@H]2NC(=O)CNC(=O)C3(C/C=C/C[C@H]21)CCN(C(=O)c1cc(C)no1)CC3 [CBK292176],104%
25,Cn1ccc(C(=O)N2CCCC3(C/C=C/Cc4ccccc4OCC(=O)NC3)C2)cc1=O (stereo not shown) [CBK292179],107%

row,SMILES,"viability at 28.5 h, 10 µM"
1,CN1C(=O)COc2ccccc2CCCC[C@@H]2[C@H]1CCCN2C(=O)CCCn1cncn1 [CBK292182],95.3%
2,O=C1NC[C@@H](Cc2ccccc2)NC(=O)C2(C/C=C/COc3ccccc31)CCN(C(=O)CN1CCCC1)CC2 [CBK292184],103%
3,CC(=O)N[C@H](C(=O)N1CC[C@@H]2NC(=O)[C@@H](Cc3ccccc3)NC(=O)C3(C/C=C/C[C@@H]2C1)CCOCC3)[C@@H](C)O [CBK292186],96.9%
4,Cc1ncsc1C(=O)N1CCC2(C/C=C/C[C@H]3COCC[C@H]3NC(=O)[C@@H](CC(C)C)NC2=O)CC1 [CBK292187],107%
5,CN1CC(=O)N2CCOC(C2)c2cccc(n2)NC(=O)C/C=C/CC2(CCN(c3ncccn3)CC2)C1=O (stereo not shown) [CBK292188],95.2%
6,CC(=O)N[C@@H](Cc1ccccc1)C(=O)N1CC[C@H]2NC(=O)[C@H](Cc3ccccc3)NC(=O)C3(C/C=C/C[C@@H]2C1)CCOCC3 [CBK292190],82.2%
7,CC(C)C[C@@H]1NC(=O)C2(C/C=C/C[C@@H]3COCC[C@@H]3NC1=O)CCN(C(=O)[C@H](CO)NC(=O)OCc1ccccc1)CC2 [CBK292191],102%
8,O=C1NC[C@@H](Cc2ccccc2)NC(=O)C2(C/C=C/COc3ccccc31)CCN(Cc1ncccc1F)CC2 [CBK292193],111%
9,CN1CC(=O)N2CCOC(C2)c2cccc(n2)NC(=O)C/C=C/CC2(CCN(Cc3ncc[nH]3)CC2)C1=O (stereo not shown) [CBK292196],103%
10,CC(=O)N[C@H](C(=O)N1CCC2(C/C=C/C[C@H]3COCC[C@H]3NC(=O)[C@@H](CC(C)C)NC2=O)CC1)[C@@H](C)OC(C)(C)C [CBK292197],90.7%
11,CC(=O)N[C@@H](C(=O)N1CC[C@@H]2NC(=O)[C@@H](Cc3ccccc3)NC(=O)C3(C/C=C/C[C@H]2C1)CCOCC3)C(C)C [CBK292198],97.1%
12,NC(=O)CC[C@H](N)C(=O)N1CC[C@@H]2NC(=O)[C@H](Cc3ccccc3)NC(=O)C3(C/C=C/C[C@@H]2C1)CCOCC3 [CBK292199],109%
13,CC(=O)N[C@H](C(=O)N1CC[C@H]2NC(=O)[C@@H](Cc3ccccc3)NC(=O)C3(C/C=C/C[C@H]2C1)CCOCC3)[C@@H](C)OC(C)(C)C [CBK292203],103%
14,CC(=O)N1C[C@H](O)C[C@H]1C(=O)N1CC[C@H]2NC(=O)[C@H](Cc3ccccc3)NC(=O)C3(C/C=C/C[C@H]2C1)CCOCC3 [CBK292204],88.7%
15,CC(=O)N[C@H](Cc1c[nH]c2ccccc12)C(=O)N1CC[C@H]2NC(=O)[C@H](Cc3ccccc3)NC(=O)C3(C/C=C/C[C@H]2C1)CCOCC3 [CBK292205],89.9%
16,CC(=O)N[C@H](CC(N)=O)C(=O)N1CCC2(C/C=C/C[C@@H]3COCC[C@@H]3NC(=O)[C@@H](CC(C)C)NC2=O)CC1 [CBK292207],106%
17,CC(=O)Nc1ccc(OC(=O)c2ccc(Br)o2)cc1 [CBK293917],112%
18,O=[N+]([O-])c1ccc(/C=N/c2cccc(-c3nc4ccccc4s3)c2)cc1 [CBK293918],91.4%
19,O=C1CCCCCC1C(Nc1ccc2ccccc2c1)c1cccnc1 (stereo not shown) [CBK293919],86.4%
20,CC(C)COC(=O)CCNc1n[nH]c(=O)[nH]c1=O [CBK293920],86.2%
21,O=C(Nc1ccccc1-c1nc2ccccc2[nH]1)c1ccc2c(c1)OCCO2 [CBK293924],104%
22,COc1ccc(Nc2cc(-n3nc(C)cc3-c3ccccc3)ncn2)cc1 [CBK293925],104%
23,CCC(=O)NC(c1ccc(OC)c(OC)c1)c1ccc2cccnc2c1O (stereo not shown) [CBK293926],78%
24,Fc1ccc(CSc2nnnn2-c2ccc3c(c2)OCO3)cc1 [CBK293927],85.2%
25,O=[N+]([O-])c1cc(Nc2ncnc3ccccc23)cc(Oc2ccccc2)c1 [CBK293928],90.3%

row,SMILES,"viability at 28.5 h, 10 µM"
1,Cc1ccc(NC2CC(C)N(C(=O)c3cccc([N+](=O)[O-])c3)c3ccc(C)cc32)cc1 (stereo not shown) [CBK293929],86.5%
2,COc1cccc2cc(C(=O)N3CCN(CCO)CC3)c(=O)oc12 [CBK293932],89.5%
3,COc1ccc(C2C=C(c3ccc(OC)c(OC)c3)Nc3ncnn32)c(OC)c1 (stereo not shown) [CBK293934],93.3%
4,COc1ccc(OCc2nc3ccccc3n2C(C)c2ccccc2)cc1 (stereo not shown) [CBK293941],116%
5,Cc1ccc(C(NC(=O)CC(C)C)c2ccc3cccnc3c2O)cc1 (stereo not shown) [CBK293943],89.3%
6,CCCC(=O)NC(c1ccc(OC)cc1)c1cc(Cl)c2cccnc2c1O (stereo not shown) [CBK293944],87.4%
7,COc1ccc(-n2c3c(cc(C(=O)Nc4ccccc4Br)c2=O)C(=O)CCC3)cc1 [CBK293945],95.7%
8,CC(C)CNc1nc2c(c(=O)n(Cc3ccccc3)c(=O)n2C)n1Cc1ccccc1 [CBK293946],81.7%
9,Cc1ccc(S(=O)(=O)N2CCN(C(c3ccccc3)c3ccccc3)CC2)cc1[N+](=O)[O-] [CBK293949],103%
10,O=S(=O)(/N=C(/c1ccc(Cl)cc1)N1CCOCC1)c1ccccc1 [CBK293950],93.5%
11,CN(C)CCCNC(=O)c1cc2c(n(-c3ccc(Cl)c(Cl)c3)c1=O)CC(C)(C)CC2=O [CBK293952],87.4%
12,Cc1ccc(-c2cc(C(F)(F)F)n3ncc(C(=O)NCc4c(C)nn(C)c4C)c3n2)cc1 [CBK293956],106%
13,CC(C)Oc1ccc(-c2cc(C(=O)NCc3ccncc3)c3ccccc3n2)cc1 [CBK293957],106%
14,Cc1cc(OC(C)C(=O)N(Cc2cccs2)C2CCS(=O)(=O)C2)cc(C)c1Cl (stereo not shown) [CBK293962],84.3%
15,Cc1ccc2c(c1)N(CCO)/C(=C/c1sc3ccccc3[n+]1CCCS(=O)(=O)[O-])S2 [CBK293965],93.5%
16,COc1cccc(C2CC(c3cccc(Cl)c3)n3nc(N)nc3N2)c1 (stereo not shown) [CBK293966],85.1%
17,COc1ccc(-n2nnnc2SCC(=O)c2ccc(O)c(O)c2)cc1 [CBK293969],90.3%
18,Cc1ccc(Cn2nnc3c(O)nc(C4CCN(C(=O)CC(C)(C)C)CC4)nc32)cc1 [CBK293970],91.2%
19,CCSC1=C(C#N)C(=O)NC(c2ccccc2O)S1 (stereo not shown) [CBK293971],109%
20,N#CC1=C(SCc2ccccc2)SC(c2ccc(O)c(O)c2)NC1=O (stereo not shown) [CBK293972],105%
21,Cc1coc(C)c1C(=O)CC1(O)C(=O)N(CCc2ccccc2)c2ccccc21 (stereo not shown) [CBK293975],84.8%
22,O=c1[nH]c2ccc(Oc3ccc4[nH]c(=O)c(=O)[nH]c4c3)cc2[nH]c1=O [CBK293978],101%
23,Cc1nnc(SCC2=NN(c3nc4ccccc4[nH]3)C(=O)C2)s1 [CBK293979],108%
